Experimental data taken from patent US20230085307A1, “PYRIDAZINONE COMPOUND AND HERBICIDE” (NISSAN CHEMICAL CORPORATION, priority 2019, published 2023).

Legend:
late watergrass = assay: Test Example 1: herbicidal activity, application before weed generation under submerged conditions (Table 16, symbol A); assay type: in vivo, late watergrass (Echinochloa oryzicola); settings: amount of applied herbicide 320 g/ha
Summary of the method: (§1)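 Alluvial soil was flooded to 4 cm depth, weed seeds were sown mixed and 2.5-leaf rice seedlings were transplanted. On sowing day, the compound's emulsion, diluted in water to a set dose, was applied to the water surface. Plants grew at 25–30 °C and were scored 0–5 after three weeks.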

Japanese bulrush = assay: Test Example 1: herbicidal activity, application before weed generation under submerged conditions (Table 16, symbol B); assay type: in vivo, Japanese bulrush (Schoenoplectus juncoides); settings: amount of applied herbicide 320 g/ha
Summary of the method: as §1

oval-leafed pondweed = assay: Test Example 1: herbicidal activity, application before weed generation under submerged conditions (Table 16, symbol C); assay type: in vivo, oval-leafed pondweed (Monochoria vaginalis); settings: amount of applied herbicide 320 g/ha
Summary of the method: as §1

barnyard grass [1] = assay: Test Example 3: herbicidal effect by foliage application, Wagner pot (Table 18, symbol H); assay type: in vivo, barnyard grass (Echinochloa crus-galli)
Summary of the method: (§2)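 Plants were sown in alluvial soil held under 0.1–0.5 cm standing water and grown 14 days in a greenhouse at 25–30 °C. An emulsifiable formulation, water-diluted to the set dose, was then sprayed onto the foliage, and effects were scored three weeks later using previously defined criteria.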

Chinese sprangletop = assay: Test Example 3: herbicidal effect by foliage application, Wagner pot (Table 18, symbol D); assay type: in vivo, chinese sprangletop (Leptochloa chinensis)
Summary of the method: as §2

rice flat sedge = assay: Test Example 3: herbicidal effect by foliage application, Wagner pot (Table 18, symbol E); assay type: in vivo, rice flat sedge (Cyperus iria)
Summary of the method: as §2

southern crabgrass [2] = assay: Test Example 4: herbicidal effect by soil treatment (Table 19, symbol F); assay type: in vivo, southern crabgrass (Digitaria ciliaris); settings: amount of applied herbicide 320 g/ha
Summary of the method: (§3)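 Three weeks of greenhouse growth at 25° C. to 30° C. followed a uniform surface spray of water-diluted emulsion at a predetermined herbicide amount. Seeds had been sown beforehand under about 1.5 cm of sterilized diluvial soil. Grading followed criteria set out in an earlier test.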

green foxtail [3] = assay: Test Example 4: herbicidal effect by soil treatment (Table 19, symbol G); assay type: in vivo, green foxtail (Setaria viridis); settings: amount of applied herbicide 320 g/ha
Summary of the method: as §3

barnyard grass [4] = assay: Test Example 4: herbicidal effect by soil treatment (Table 19, symbol H); assay type: in vivo, barnyard grass (Echinochloa crus-galli); settings: amount of applied herbicide 320 g/ha
Summary of the method: as §3

wild oat [5] = assay: Test Example 4: herbicidal effect by soil treatment (Table 19, symbol I); assay type: in vivo, wild oat (Avena fatua); settings: amount of applied herbicide 320 g/ha
Summary of the method: as §3

blackgrass [6] = assay: Test Example 4: herbicidal effect by soil treatment (Table 19, symbol J); assay type: in vivo, blackgrass (Alopecurus myosuroides); settings: amount of applied herbicide 320 g/ha
Summary of the method: as §3

Italian ryegrass [7] = assay: Test Example 4: herbicidal effect by soil treatment (Table 19, symbol K); assay type: in vivo, Italian ryegrass (Lolium multiflorum); settings: amount of applied herbicide 320 g/ha
Summary of the method: as §3

windgrass [8] = assay: Test Example 4: herbicidal effect by soil treatment (Table 19, symbol L); assay type: in vivo, windgrass (Apera spica-venti); settings: amount of applied herbicide 320 g/ha
Summary of the method: as §3

velvetleaf [9] = assay: Test Example 4: herbicidal effect by soil treatment (Table 19, symbol M); assay type: in vivo, velvetleaf (Abutilon theophrasti); settings: amount of applied herbicide 320 g/ha
Summary of the method: as §3

redroot pigweed = assay: Test Example 4: herbicidal effect by soil treatment (Table 19, symbol N); assay type: in vivo, redroot pigweed (Amaranthus retroflexus); settings: amount of applied herbicide 320 g/ha
Summary of the method: as §3

lambsquarters [10] = assay: Test Example 4: herbicidal effect by soil treatment (Table 19, symbol O); assay type: in vivo, lambsquarters (Chenopodium album); settings: amount of applied herbicide 320 g/ha
Summary of the method: as §3

chickweed = assay: Test Example 4: herbicidal effect by soil treatment (Table 19, symbol P); assay type: in vivo, common chickweed (Stellaria media); settings: amount of applied herbicide 320 g/ha
Summary of the method: as §3

false cleavers = assay: Test Example 4: herbicidal effect by soil treatment (Table 19, symbol Q); assay type: in vivo, false cleavers (Galium spurium); settings: amount of applied herbicide 320 g/ha
Summary of the method: as §3

persian speedwell [11] = assay: Test Example 4: herbicidal effect by soil treatment (Table 19, symbol R); assay type: in vivo, Persian speedwell (Veronica persica); settings: amount of applied herbicide 320 g/ha
Summary of the method: as §3

southern crabgrass [12] = assay: Test Example 5: herbicidal effect by foliage application, plastic box (Table 20, symbol F); assay type: in vivo, southern crabgrass (Digitaria ciliaris); settings: foliage application, 320 g/ha, three weeks after application
Summary of the method: (§4)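 Plants sown in sterilized diluvial soil and grown 14 days in a greenhouse at 25° C to 30° C, then sprayed on the foliage with the compound's emulsion diluted in water to a predetermined herbicide amount. Injury to weeds and crops scored three weeks after application on a visual rating scale.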

green foxtail [13] = assay: Test Example 5: herbicidal effect by foliage application, plastic box (Table 20, symbol G); assay type: in vivo, green foxtail (Setaria viridis); settings: foliage application, 320 g/ha, three weeks after application
Summary of the method: as §4

barnyard grass [14] = assay: Test Example 5: herbicidal effect by foliage application, plastic box (Table 20, symbol H); assay type: in vivo, barnyard grass (Echinochloa crus-galli); settings: foliage application, 320 g/ha, three weeks after application
Summary of the method: as §4

wild oat [15] = assay: Test Example 5: herbicidal effect by foliage application, plastic box (Table 20, symbol I); assay type: in vivo, wild oat (Avena fatua); settings: foliage application, 320 g/ha, three weeks after application
Summary of the method: as §4

blackgrass [16] = assay: Test Example 5: herbicidal effect by foliage application, plastic box (Table 20, symbol J); assay type: in vivo, blackgrass (Alopecurus myosuroides); settings: foliage application, 320 g/ha, three weeks after application
Summary of the method: as §4

Italian ryegrass [17] = assay: Test Example 5: herbicidal effect by foliage application, plastic box (Table 20, symbol K); assay type: in vivo, Italian ryegrass (Lolium multiflorum); settings: foliage application, 320 g/ha, three weeks after application
Summary of the method: as §4

windgrass [18] = assay: Test Example 5: herbicidal effect by foliage application, plastic box (Table 20, symbol L); assay type: in vivo, windgrass (Apera spica-venti); settings: foliage application, 320 g/ha, three weeks after application
Summary of the method: as §4

velvetleaf [19] = assay: Test Example 5: herbicidal effect by foliage application, plastic box (Table 20, symbol M); assay type: in vivo, velvetleaf (Abutilon theophrasti); settings: foliage application, 320 g/ha, three weeks after application
Summary of the method: as §4

lambsquarters [20] = assay: Test Example 5: herbicidal effect by foliage application, plastic box (Table 20, symbol O); assay type: in vivo, lambsquarters (Chenopodium album); settings: foliage application, 320 g/ha, three weeks after application
Summary of the method: as §4

persian speedwell [21] = assay: Test Example 5: herbicidal effect by foliage application, plastic box (Table 20, symbol R); assay type: in vivo, Persian speedwell (Veronica persica); settings: foliage application, 320 g/ha, three weeks after application
Summary of the method: as §4

[22] = amount of applied herbicide 320 g/ha

Structure (SMILES) | Herbicidal effect, A: late watergrass (late watergrass) | Herbicidal effect, B: Japanese bulrush (Japanese bulrush) | Herbicidal effect, C: oval-leafed pondweed (oval-leafed pondweed) | F: southern crabgrass, herbicidal effect grade (southern crabgrass [2]) | G: green foxtail, herbicidal effect grade (green foxtail [3]) | H: barnyard grass, herbicidal effect grade (barnyard grass [4]) | I: wild oat, herbicidal effect grade (wild oat [5]) | J: blackgrass, herbicidal effect grade (blackgrass [6]) | K: Italian ryegrass, herbicidal effect grade (Italian ryegrass [7]) | L: windgrass, herbicidal effect grade (windgrass [8]) | M: velvetleaf, herbicidal effect grade (velvetleaf [9]) | N: redroot pigweed, herbicidal effect grade (redroot pigweed) | O: lambsquarters, herbicidal effect grade (lambsquarters [10]) | P: chickweed, herbicidal effect grade (chickweed) | Q: false cleavers, herbicidal effect grade (false cleavers) | R: persian speedwell, herbicidal effect grade (persian speedwell [11]) | herbicidal effect on southern crabgrass (F) (southern crabgrass [12]) | herbicidal effect on green foxtail (G) (green foxtail [13]) | herbicidal effect on barnyard grass (H) (barnyard grass [14]) | herbicidal effect on wild oat (I) (wild oat [15]) | other results
CCCC(=O)Oc1c(C)nn(C)c(=O)c1-c1c(-c2ccc(F)cc2OC)sc2cc(OC)c(OC)cc12 [5-061] | 5 (Herbicidal rate of 90% or more (almost completely withered)) | 3 (Herbicidal rate of 40% or more and less than 70%) | 3 (Herbicidal rate of 40% or more and less than 70%) | 0 (Herbicidal rate of 5% or less (almost no effect)) | 0 (Herbicidal rate of 5% or less (almost no effect)) | 0 (Herbicidal rate of 5% or less (almost no effect)) | 0 (Herbicidal rate of 5% or less (almost no effect)) | 0 (Herbicidal rate of 5% or less (almost no effect)) | 0 (Herbicidal rate of 5% or less (almost no effect)) | 0 (Herbicidal rate of 5% or less (almost no effect)) | 0 (Herbicidal rate of 5% or less (almost no effect)) | 0 (Herbicidal rate of 5% or less (almost no effect)) | 0 (Herbicidal rate of 5% or less (almost no effect)) | 3 (Herbicidal rate of 40% or more and less than 70%) | 0 (Herbicidal rate of 5% or less (almost no effect)) | 2 (Herbicidal rate of 20% or more and less than 40%) | 4 (Herbicidal rate of 70% or more and less than 90%) | 4 (Herbicidal rate of 70% or more and less than 90%) | 4 (Herbicidal rate of 70% or more and less than 90%) | 4 (Herbicidal rate of 70% or more and less than 90%) | herbicidal effect on barnyard grass (H) (barnyard grass [1]; 320 g/ha): 5 (Herbicidal rate of 90% or more (almost completely withered)); herbicidal effect on Chinese sprangletop (D) (Chinese sprangletop; 320 g/ha): 3 (Herbicidal rate of 40% or more and less than 70%); herbicidal effect on rice flat sedge (E) (rice flat sedge; 320 g/ha): 4 (Herbicidal rate of 70% or more and less than 90%); herbicidal effect on blackgrass (J) (blackgrass [16]): 4 (Herbicidal rate of 70% or more and less than 90%); herbicidal effect on Italian ryegrass (K) (Italian ryegrass [17]): 4 (Herbicidal rate of 70% or more and less than 90%); herbicidal effect on windgrass (L) (windgrass [18]): 2 (Herbicidal rate of 20% or more and less than 40%); herbicidal effect on velvetleaf (M) (velvetleaf [19]): 0 (Herbicidal rate of 5% or less (almost no effect)); herbicidal effect on lambsquarters (O) (lambsquarters [20]): 3 (Herbicidal rate of 40% or more and less than 70%); herbicidal effect on persian speedwell (R) (persian speedwell [21]): 5 (Herbicidal rate of 90% or more (almost completely withered))
Cc1nn(C)c(=O)c(-c2c(-c3ccc(OC(F)F)cc3)oc3ccc(F)cc23)c1O [9-031] | 2 (Herbicidal rate of 20% or more and less than 40%) | 0 (Herbicidal rate of 5% or less (almost no effect)) | 0 (Herbicidal rate of 5% or less (almost no effect)) | 4 (Herbicidal rate of 70% or more and less than 90%) | 4 (Herbicidal rate of 70% or more and less than 90%) | 4 (Herbicidal rate of 70% or more and less than 90%) | 0 (Herbicidal rate of 5% or less (almost no effect)) | 0 (Herbicidal rate of 5% or less (almost no effect)) | 5 (Herbicidal rate of 90% or more (almost completely withered)) | 4 (Herbicidal rate of 70% or more and less than 90%) | 2 (Herbicidal rate of 20% or more and less than 40%) | 5 (Herbicidal rate of 90% or more (almost completely withered)) | 3 (Herbicidal rate of 40% or more and less than 70%) | 4 (Herbicidal rate of 70% or more and less than 90%) | 3 (Herbicidal rate of 40% or more and less than 70%) | 5 (Herbicidal rate of 90% or more (almost completely withered)) | 4 (Herbicidal rate of 70% or more and less than 90%) | 5 (Herbicidal rate of 90% or more (almost completely withered)) | 4 (Herbicidal rate of 70% or more and less than 90%) | 4 (Herbicidal rate of 70% or more and less than 90%) | Herbicidal effect on H (barnyard grass), foliage application (barnyard grass [1]; [22]): 5 (Herbicidal rate of 90% or more (almost completely withered)); Herbicidal effect on D (Chinese sprangletop), foliage application (Chinese sprangletop; [22]): 1 (Herbicidal rate of 5% or more and less than 20%); Herbicidal effect on E (rice flat sedge), foliage application (rice flat sedge; [22]): 5 (Herbicidal rate of 90% or more (almost completely withered)); herbicidal effect on blackgrass (J) (blackgrass [16]): 4 (Herbicidal rate of 70% or more and less than 90%); herbicidal effect on Italian ryegrass (K) (Italian ryegrass [17]): 5 (Herbicidal rate of 90% or more (almost completely withered)); herbicidal effect on windgrass (L) (windgrass [18]): 4 (Herbicidal rate of 70% or more and less than 90%); herbicidal effect on velvetleaf (M) (velvetleaf [19]): 5 (Herbicidal rate of 90% or more (almost completely withered)); herbicidal effect on lambsquarters (O) (lambsquarters [20]): 5 (Herbicidal rate of 90% or more (almost completely withered)); herbicidal effect on persian speedwell (R) (persian speedwell [21]): 5 (Herbicidal rate of 90% or more (almost completely withered))
